≈ marks a conversion by molar mass, not a printed value. Where a SMILES comes first, the peptide text is derived from it. [ ]: non-standard residue; d: D form.
Key:
[1] = test system: K. pneumoniae clinical isolates; test: microbe, parasite or virus in culture; details: clinical isolates
Protocol: (§1) Subcultures, prepared by inoculating 25 mL of fresh tryptic soy broth (TSB) with 200 μL of an overnight culture, were grown to log phase (OD600 = 0.3–0.6), after which cell counts were determined by measuring the OD600 (1.0 = 5 × 10^8 CFU/mL for E. coli, 4 × 10^8 CFU/mL for K. pneumoniae, 4 × 10^8 CFU/mL for P. aeruginosa, 1.5 × 10^8 CFU/mL for S. aureus). Bacterial cells were diluted to appropriate concentrations in TSB. We used the following clinical bacterial isolates of Klebsiella pneumoniae in this study: Strains KP6, KP46, NDM-1, KP396, and KP398 have been previously described.[43] ST58 strains C2, C3, and I2 are also described.[41] […] MRSA, […] S. aureus strain, is SAP400, a USA400 strain of community-acquired MRSA. […] The second independent set of K. pneumoniae isolates are previously described.[20],[21]
The antibiotics were serially diluted by a factor of 2:3 horizontally across 96-well plates from Corning, 25 μL per well. One column was reserved for controls. For the assays performed in the presence of RBC, type O+ human RBCs at 0 or 2.5 × 10^9 cells/mL were added in 50 μL aliquots to all wells. […] To assess bacterial growth in the assays with RBC, the OD600 was measured after a second-day inoculation with 10 μL of solution from the original plate added to 100 μL of sterile TSB followed by overnight incubation.
Experiments were repeated four to eight times independently, with pairs of replicate measurements on each 96-well plate. After overnight growth, optical densities were measured at 660 nm and the sterilized wells were identified by having O.D. < 0.08. Nonsterilized wells were nearly opaque with OD > 0.6. For each measurement, we recorded the largest dilution that sterilized the bacteria. Statistics are done on dilution numbers, rather than calculated concentrations, because only the former have normal distributions.

K. pneumoniae isolates = test: Susceptibility of all K. pneumoniae isolates (both sets); format: cell-based, Klebsiella pneumoniae; details: both sets of clinical isolates
Description: In parallel experiments, resistance of P. aeruginosa to multiple conventional antibiotics grew rapidly over just a few passages.[5] […] The mechanism of resistance avoidance is currently unknown. Further studies will be required to understand the mechanistic basis for the resistance avoidance of D-CONGA-Q7 against K. pneumoniae isolates. These insights will be particularly important for the advancement of resistance-avoiding AMPs into the clinic.

[2] = test system: P. aeruginosa wound biofilms; test: SEM of Tegaderm wound dressing, P. aeruginosa; format: in vivo, CD1 mice; details: dressing removed on Day 3, treated three times a day
Description: (§2) The Tegaderm dressing used in the murine wound model is an excellent substrate for bacterial adhesion and biofilm formation.[5],[15] […] We imaged three to four randomly selected areas of each Tegaderm sample at two magnifications each. Each image is scored for the presence/absence of bacterial cells, either rod-shaped P. aeruginosa, ∼1 μm in diameter, or spherical MRSA cocci, ∼0.9 μm in diameter. Images are also scored for biofilm-like structures defined by having multiple bacteria embedded in an obvious three-dimensional matrix. These distinctions are shown by representative images of the fixed Tegaderm dressings in Figure 9A,B. In vehicle control samples, we observed that P. aeruginosa frequently forms an open, three-dimensional matrix in which many cells are entangled in μm-long fibers. We observed that MRSA also forms a matrix in which cells are close-packed in strands that comprise a large-scale mesh. Every SEM image (68/68) from vehicle control samples of the two bacteria contained obvious visible bacteria, and most of these images contained ≥50 individual cells. In samples from peptide-treated animals, 57 of 68 (84%) of images had no visible bacteria. […] We performed a statistical analysis of observed bacteria and biofilms using the binomial equation. P-values for all comparisons of treated vs vehicle were less than 0.001. […]

[3] = test system: 14 clinical isolates of resistant bacterial strains; test: Broth dilution, summary over the 14 clinical isolates of the first set; format: cell-based; details: 14 clinical isolates of the first set
Protocol: In Figure 4B, we plot the fraction of isolates sterilized as functions of antibiotic concentration.
as §1
The antibiotics were serially diluted by a factor of 2:3 horizontally across 96-well plates from Corning, 25 μL per well. One column was reserved for controls. For the assays performed in the presence of RBC, type O+ human RBCs at 0 or 2.5 × 10^9 cells/mL were added in 50 μL aliquots to all wells. Following a 30-min incubation, 50 μL of TSB, inoculated with 5 × 10^5 CFU/mL, was added to all wells, and plates were incubated overnight at 37 °C. Following overnight incubation at 37 °C, the OD600 was measured (values of less than 0.1 were considered sterilized). To assess bacterial growth in the assays with RBC, the OD600 was measured after a second-day inoculation with 10 μL of solution from the original plate added to 100 μL of sterile TSB followed by overnight incubation.

MRSA wound biofilms = test: SEM of Tegaderm wound dressing, MRSA; format: in vivo, CD1 mice; details: dressing removed on Day 3, treated three times a day
Description: as §2

[4] = images with bacteria / all random images
[5] = images with biofilm / all random images

With CC(C)C[C@@H](NC(=O)[C@@H](CCC(N)=O)NC(=O)[C@@H](CCCNC(=N)N)NC(=O)[C@@H](CCCNC(=N)N)NC(=O)[C@@H](C)NC(=O)[C@@H](Cc1c[nH]c2ccccc12)NC(=O)[C@@H](CCCNC(=N)N)NC(=O)[C@H](N)CCCNC(=N)N)C(=O)N[C@H](C)C(=O)N[C@H](Cc1ccccc1)C(=O)N[C@H](C)C(=O)N[C@H](Cc1ccccc1)C(=O)N[C@H](CCCNC(=N)N)C(=O)N[C@H](CCCNC(=N)N)C(N)=O [D-CONGA-Q7] (H-[dR][dR][dW][dA][dR][dR][dQ][dL][dA][dF][dA][dF][dR][dR]-NH2; N-terminus assumed) the “MIC, KP 6” value [1] was 3.2 µM (≈ 6.05 µg/mL), the “MIC, KP 46” value [1] was 2.2 µM (≈ 4.16 µg/mL) and the “MIC, KP 398” value [1] was 3.8 µM (≈ 7.18 µg/mL). The “MIC, KP (CRE)” value [1] was 2.0 µM (≈ 3.78 µg/mL), the “MIC, KP ATCC 33495” value [1] was 2.4 µM (≈ 4.53 µg/mL) and the “MIC, KP ST258 C2” value [1] was 8.9 µM (≈ 16.8 µg/mL). For the same compound, the “MIC, KP ST258 C3” value [1] was 14 µM (≈ 26.4 µg/mL), the “MIC, KP ST258 I2” value [1] was 1.4 µM (≈ 2.64 µg/mL) and the “MIC, KP ST396” value [1] was 1.9 µM (≈ 3.59 µg/mL). For the same compound, the “K. pneumoniae isolates susceptible” value (K. pneumoniae isolates) was 28 of 29, the “P. aeruginosa: Bacteria present (SEM images of Tegaderm)” value [2, 4] was 8/33 and the “P. aeruginosa: Biofilm present (SEM images of Tegaderm)” value [2, 5] was 0/33. For the same compound, the “Fraction of clinical isolates sterilized at 2 μM” value ([3]; 2 μM) was “half”, the “Fraction of clinical isolates sterilized at 5 μM” value ([3]; 5 μM) was 12/14 and the “MRSA: Bacteria Present (SEM images of Tegaderm)” value (MRSA wound biofilms; [4]) was 3/35. The “MRSA: Biofilm present (SEM images of Tegaderm)” value (MRSA wound biofilms; [5]) was 0/35.

Reference: PMC10111420, “Optimization of Host Cell-Compatible, Antimicrobial Peptides Effective against Biofilms and Clinical Isolates of Drug-Resistant Bacteria” (ACS Infectious Diseases, 2023)
